Test results taken from patent publication US5807850A, “Therapeutic agent for osteoporosis and triazepine compound” (Japan Tobacco, Inc., priority 1994, dated 1998).
pIC50: −log10 of the molar value.

Test system: calvaria
Experiment: Inhibition of bone resorption (45Ca release from calvaria stimulated with hPTH (1-34), method of Raisz)
Assay type: cell-based, new born ICR mouse
Details: 45Ca release, 50 nM hPTH (1-34), 3 days incubation; test concentrations 0.04, 0.2 and 1 μM; mean of 4 pairs; read-out: IC50 (inhibition of bone resorption)
Description: The determination of the inhibitory action on the bone resorption was basically in accordance with the method of Raisz [J. Clin. Invest. vol.
A new born ICR mouse (one or two days old) was intraperitoneally administered with 1.5μ Ci ^45 Ca (isotope of calcium as CaCl2 solution) and calvaria was aseptically removed the next day. The calvaria was split into two along the central suture line, and one of them was used as a control and the other was used as a test compound. The calvaria was preincubated at 37° C. for 2 days in BGJb medium [0.5 ml, Fitton-Jackson modification, GIBCO Laboratories, USA, containing bovine serum albumin 1 mg/ml] added with a test compound to the concentrations of 0.04 μM, 0.2 μM and 1 μM and then in the above-mentioned medium containing 50 nM hPTH (1-34) for further 3 days. After the incubation, the ^45 Ca radioactivity in the medium and the bone was determined, and the proportion (%) of ^45 Ca released from the bone into the medium was calculated by the following formula.
Using the bone obtained from the same mouse and treated in the same manner without adding a test compound, as a control, the proportion (%) relative to the control group was determined according to the following formula.

Row | SMILES | pIC50
1 | COc1ccc(CN2N=C(c3ccc(Cl)cc3)c3ccccc3-n3c(C)nnc32)cc1 [Example 77, 6-(4-Chlorophenyl)-4-(4-methoxybenzyl)-1-methyl-4H-2,3,4,5,10b-pentaazabenz[e]azulene] | 6.92
2 | Cc1nnc2n1-c1ccccc1C(c1ccc(Cl)cc1)=NN2Cc1cccnc1 [Example 98, 6-(4-Chlorophenyl)-1-methyl-4-(pyridin-3-ylmethyl)-4H-2,3,4,5,10b-pentaazabenz[e]azulene] | 6.27

Same assay, conditions: Mus musculus, 72 h, read-out: IC50 (inhibition of bone resorption)

Row | SMILES | pIC50
3 | Cc1nnc2n1-c1ccccc1C(c1ccc(Cl)cc1)=NN2Cc1ccc(F)cc1 [Example 59, 6-(4-Chlorophenyl)-4-(4-fluorobenzyl)-1-methyl-4H-2,3,4,5,10b-pentaazabenz[e]azulene] | 6.17
4 | C=C(Br)CN1N=C(c2ccc(Cl)cc2)c2ccccc2-n2c(C)nnc21 [Example 113, 4-(2-Bromo-2-propenyl)-6-(4-chlorophenyl)-1l-methyl-4H-2,3,4,5,10b-pentaazabenz[e]azulene] | 6.30
5 | Cc1nnc2n1-c1ccc(Cl)cc1C(c1ccccc1)=NN2Cc1ccncc1 [Example 126, 8-Chloro-1-methyl-6-phenyl-4-(pyridin-4-ylmethyl)-4H-2,3,4,5,10b-pentaazabenz[e]azulene] | 6.28

Same assay, conditions: Mus musculus, 72 h; 45Ca release, 50 nM hPTH (1-34), 3 days incubation; test concentrations 0.04, 0.2 and 1 μM; mean of 4 pairs; read-out: IC50 (inhibition of bone resorption)

Row | SMILES | pIC50
6 | COc1ccc(CN2N=C(c3ccc(Cl)cc3)c3ccccc3-n3c(C)nnc32)cc1 [Example 40, 6-(4-Chlorophenyl)-4-(4-methoxybenzyl)-1-methyl-4H-2,3,4,5,10b-pentaazabenz[e]azulene] | 6.92
7 | COc1ccc(CN2N=C(c3ccc(Cl)cc3)c3ccccc3-n3c(C)nnc32)cc1OC [Example 41, 6-(4-Chlorophenyl)-4-(3,4-dimethoxybenzyl)-1-methyl-4H-2,3,4,5,10b-pentaazabenz[e]azulene] | 6.10
8 | COc1ccc(CN2N=C(c3ccc(C)cc3)c3ccccc3-n3c(C)nnc32)cc1 [Example 46, 4-(4-Methoxybenzyl)-1-methyl-6-(4-methylphenyl)-4H-2,3,4,5,10b-pentaazabenz[e]azulene] | 6.38
9 | Cc1nnc2n1-c1ccccc1C(c1ccc(Cl)cc1)=NN2Cc1cccc(C#N)c1 [Example 56, 6-(4-Chlorophenyl)-4-(3-cyanobenzyl)-1-methyl-4H-2,3,4,5,10b-pentaazabenz[e]azulene] | 6.60
10 | Cc1nnc2n1-c1ccccc1C(c1ccc(Cl)cc1)=NN2Cc1ccccc1F [Example 57, 6-(4-Chlorophenyl)-4-(2-fluorobenzyl)-1-methyl-4H-2,3,4,5,10b-pentaazabenz[e]azulene] | 6.14
11 | Cc1nnc2n1-c1ccccc1C(c1ccc(Cl)cc1)=NN2Cc1cccc(F)c1 [Example 58, 6-(4-Chlorophenyl)-4-(3-fluorobenzyl)-1-methyl-4H-2,3,4,5,10b-pentaazabenz[e]azulene] | 6.37
12 | Cc1nnc2n1-c1ccccc1C(c1ccc(Cl)cc1)=NN2Cc1cc(F)ccc1F [Example 61, 6-(4-Chlorophenyl)-4-(2,5-difluorobenzyl)-1-methyl-4H-2,3,4,5,10b-pentaazabenz[e]azulene] | 6.09
13 | Cc1nnc2n1-c1ccccc1C(c1ccc(Cl)cc1)=NN2Cc1cc(F)cc(F)c1 [Example 62, 6-(4-Chlorophenyl)-4-(3,5-difluorobenzyl)-1-methyl-4H-2,3,4,5,10b-pentaazbenz[e]azulene] | 6.15
14 | Cc1nnc2n1-c1ccccc1C(c1ccc(Cl)cc1)=NN2Cc1ccc(F)c(F)c1 [Example 63, 6-(4-Chlorophenyl)-4-(3,4-difluorobenzyl)-1-methyl-4H-2,3,4,5,10b-pentaazabenz[e]azulene] | 6.13
15 | Cc1nnc2n1-c1ccccc1C(c1ccc(Cl)cc1)=NN2Cc1cccc([N+](=O)[O-])c1 [Example 68, 6-(4-Chlorophenyl)-1-methyl-4-(3-nitrobenzyl)-4H-2,3,4,5,10b-pentaazabenz[e]azulene] | 6.48
16 | Cc1nnc2n1-c1ccccc1C(c1ccc(Cl)cc1)=NN2Cc1cccc(Cl)c1 [Example 70, 4-(3-Chlorobenzyl)-6-(4-chlorophenyl)-1-methyl-4H-2,3,4,5,10b-pentaazabenz[e]azulene] | 6.19
17 | Cc1nnc2n1-c1ccccc1C(c1ccc(Cl)cc1)=NN2Cc1ccc(C#N)cc1 [Example 74, 6-(4-Chlorophenyl)-4-(4-cyanobenzyl)-1-methyl-4H-2,3,4,5,10b-pentaazabenz[e]azulene] | 6.37
18 | COc1cccc(CN2N=C(c3ccc(Cl)cc3)c3ccccc3-n3c(C)nnc32)c1 [Example 76, 6-(4-Chlorophenyl)-4-(3-methoxybenzyl)-1-methyl-4H-2,3,4,5,10b-pentaazabenz[e]azulene] | 6.25
19 | COc1cc(CN2N=C(c3ccc(Cl)cc3)c3ccccc3-n3c(C)nnc32)cc(OC)c1OC [Example 79, 6-(4-Chlorophenyl)-1-methyl-4-(3,4,5-trimethoxybenzyl)-4H-2,3,4,5,10b-pentaazabenz[e]azulene] | 6.24
20 | Cc1nnc2n1-c1ccccc1C(c1ccc(Cl)cc1)=NN2Cc1ccc2c(c1)OCO2 [Example 81, 6-(4-Chlorophenyl)-1-methyl-4-(3,4-methylenedioxybenzyl)-4H-2,3,4,5,10b-pentaazabenz[e]azulene] | 6.23
21 | COc1ccc(CN2N=C(c3ccc(Cl)cc3)c3ccccc3-n3c(C)nnc32)cc1[N+](=O)[O-] [Example 84, 6-(4-Chlorophenyl)-4-(4-methoxy-3-nitrobenzyl)-1-methyl-4H-2,3,4,5,10b-pentaazabenz[e]azulene] | 6.17
22 | COc1ccc(CN2N=C(c3ccc(Cl)cc3)c3ccccc3-n3c(C)nnc32)cc1Cl [Example 85, 4-(3-Chloro-4-methoxybenzyl)-6-(4-chlorophenyl)-1-methyl-4H-2,3,4,5,10b-pentaazabenz[e]azulene] | 6.07

Row | SMILES | pIC50
23 | Cc1cccc(CN2N=C(c3ccc(Cl)cc3)c3ccccc3-n3c(C)nnc32)c1 [Example 88, 6-(4-Chlorophenyl)-1-methyl-4-(3-methylbenzyl)-4H-2,3,4,5,10b-pentaazabenz[e]azulene] | 6.23
24 | Cc1nnc2n1-c1ccccc1C(c1ccc(Cl)cc1)=NN2Cc1ccccc1 [Example 94, 4-Benzyl-6-(4-chlorophenyl)-1-methyl-4H-2,3,4,5,10b-pentaazabenz[e]azulene] | 6.25
25 | Cc1nc(CN2N=C(c3ccc(Cl)cc3)c3ccccc3-n3c(C)nnc32)cs1 [Example 100, 6-(4-Chlorophenyl)-4-(2-methyl-1,3-thiazol-4-ylmethyl)-1-methyl-4H-2,3,4,5,10b-pentaazabenz[e]azulene] | 6.15
26 | Cc1nnc2n1-c1ccccc1C(c1ccc(Cl)cc1)=NN2CC1CC1 [Example 106, 6-(4-Chlorophenyl)-4-cyclopropylmethyl-1-methyl-4H-2,3,4,5,10b-pentaazabenz[e]azulene] | 6.08
27 | C=C(C)CN1N=C(c2ccc(Cl)cc2)c2ccccc2-n2c(C)nnc21 [Example 111, 6-(4-Chlorophenyl)-1-methyl-4-(2-methyl-2-propenyl)-4H-2,3,4,5,10b-pentaazabenz[e]azulene] | 6.29
28 | C=C(Cl)CN1N=C(c2ccc(Cl)cc2)c2ccccc2-n2c(C)nnc21 [Example 112, 6-(4-Chlorophenyl)-4-(2-chloro-2-propenyl)-1l-methyl-4H-2,3,4,5,10b-pentaazabenz[e]azulene] | 6.42
29 | Cc1nnc2n1-c1ccccc1C(c1ccc(Cl)cc1)=NN2Cc1ccncc1 [Example 120, 6(4-Chlorophenyl)-1-methyl-4-(pyridin-4-ylmethyl)-4H-2,3,4,5,10b-pentaazabenz[e]azulene] | 6.66
30 | Cc1nnc2n1-c1ccccc1C(c1ccc(Cl)cc1)=NN2Cc1ccc(S(C)(=O)=O)cc1 [Example 121, 6-(4-Chlorophenyl)-1-methyl-4-(4-methylsulfonylbenzyl)-4H-2,3,4,5,10b-pentaazabenz[e]azulene] | 6.85
31 | Cc1nnc2n1-c1ccccc1C(c1ccc(Cl)cc1)=NN2Cc1ccc([N+](=O)[O-])cc1 [Example 122, 6-(4-Chlorophenyl)-1-methyl-4-(4-nitrobenzyl)-4H-2,3,4,5,10b-pentaazabenz[e]azulene] | 6.14
32 | Cc1nnc2n1-c1ccccc1C(c1ccc(Cl)cc1)=NN2Cc1cc(Cl)nc(Cl)c1 [Example 123, 6-(4-Chlorophenyl)-4-(2,6-dichloropyridin-4-ylmethyl)-1-methyl-4H-2,3,4,5,10b-pentaazabenz[e]azulene] | 6.19
33 | Cc1nnc2n1-c1ccccc1C(c1ccccc1)=NN2Cc1cccnc1 [Example 128, 1-Methyl-6-phenyl-4-(pyridin-3-ylmethyl)-4H-2,3,4,5,10b-pentaazabenz[e]azulene] | 6.03
34 | Cc1nnc2n1-c1ccccc1C(c1ccccc1)=NN2Cc1ccncc1 [Example 129, 1-Methyl-6-phenyl-4-(pyridin-4-ylmethyl)-4H-2,3,4,5,10b-pentaazabenz[e]azulene] | 6.11
35 | Cc1nnc2n1-c1ccc([N+](=O)[O-])cc1C(c1ccccc1)=NN2Cc1ccncc1 [Example 134, 1-Methyl-8-nitro-6-phenyl-4-(pyridin-4-ylmethyl)-4H-2,3,4,5,10b-pentaazabenz[e]azulene] | 6.74
36 | Cc1ccc(C2=NN(Cc3ccncc3)c3nnc(C)n3-c3ccccc32)cc1 [Example 135, 1-Methyl-6-(4-methylphenyl)-4-(pyridin-4-ylmethyl)-4H-2,3,4,5,10b-pentaazabenz[e]azulene] | 6.39
37 | Cc1ccc(C2=NN(Cc3cccc(C#N)c3)c3nnc(C)n3-c3ccccc32)cc1 [Example 136, 4-(3-Cyanobenzyl)-1-methyl-6-(4-methylphenyl)-4H-2,3,4,5,10b-pentaazabenz [e]azulene] | 6.23
38 | Cc1sc2c(c1C)C(c1ccc(Cl)cc1)=NN(Cc1cccnc1)c1nnc(C)n1-2 [Example 139, 4-(4-Chlorophenyl)-2,3,9-trimethyl-6-(pyridin-3-ylmethyl)-6H-5,6,7,8,9a-pentaazathien[2,3-e]azulene] | 7.74
39 | Cc1sc2c(c1C)C(c1ccc(Cl)cc1)=NN(Cc1ccncc1)c1nnc(C)n1-2 [Example 140, 4-(4-Chlorophenyl)-2,3,9-trimethyl-6-(pyridin-4-ylmethyl)-6H-5,6,7,8,9a-pentaazathien[2,3-e]azulene] | 7.30
